Test results as given in publication PMC10407933, “Four of a Kind: A Complete Collection of ADP-Ribosylated Histidine Isosteres Using Cu(I)- and Ru(II)-Catalyzed Click Chemistry” (The Journal of Organic Chemistry, 2023).
Where two headings read alike, the source gives them in different places. Starred links: 1 amine or outer side, 2 acyl side, 3 side chain; linkers in the order of their positions; H or OH if unused. Non-standard residues stand in square brackets, D forms with d. Residues, ends and D or L forms follow the SMILES beside them. X2 = Nc1ncnc2c1ncn2[C@@H]1O[C@H](COP(=O)(O)OP(=O)(O)OC[C@H]2O[C@@H](n3nncc3C[C@H](N[*:1])C(=O)[*:2])[C@H](O)[C@@H]2O)[C@@H](O)[C@H]1O; X1 = Nc1ncnc2c1ncn2[C@@H]1O[C@H](COP(=O)(O)OP(=O)(O)OC[C@H]2O[C@H](n3nncc3C[C@H](N[*:1])C(=O)[*:2])[C@H](O)[C@@H]2O)[C@@H](O)[C@H]1O

Columns and labels:
ARH3 = ARH3 (Homo sapiens, UniProt Q9NX46); conditions: 10 μM peptide, 0.5 μM hydrolase, 30 C, AMP-Glo luminescence, normalized to NudT16; for ARH3-mediated hydrolysis of the N-glycosidic linkage: 60 min, 50 mM TrisHCl pH 8, 200 mM NaCl, 10 mM MgCl2, 1 mM DTT, 0.2 μM human NUDT5
Method: (§1) Samples were extracted at different time points (2, 4, 8, 24, 48, and 169 h) and quenched with TFA prior to LC-MS injection. Peptide degradation was quantified by analyzing the UV-trace (260 nm) using Xcalibur software. […] Enzymatic turnover of the various peptides was assessed by monitoring AMP release directly (NudT16) or converting released ADPr via NudT5 to AMP. AMP was measured using the AMP-Glo assay (Promega). Samples are background corrected and normalized to NudT16 activity.

[1] = 0.1 M NaOH; for additional peaks of identical mass (isomerization) after NaOH treatment: LC-MS
Method: With all four ADPr-His* conjugates available, we next evaluated their stability under various conditions in a liquid-chromatography mass-spectrometry (LC-MS) based assay. The conditions surveyed (NH2OH, TFA, and NaOH) were selected because of their frequent occurrence in ADP-ribosylome-focused proteomics studies.
as §1
Figure S3. UV-trace (260 nm) of the obtained LC-MS spectra after treating β-configured 1,5-disubstituted triazole 24 with 0.1 M NaOH at various time points.
(1 picture or pasted object on this page, not shown here)
Figure S6. UV-trace (260 nm) of the obtained LC-MS spectra after treating α-configured 1,5-disubstituted triazole 29 with 0.1 M NaOH at various time points.

[2] = 0 h, quenched with TFA, LC-MS UV-trace 260 nm
[3] = 2 h, quenched with TFA, LC-MS UV-trace 260 nm
[4] = 4 h, quenched with TFA, LC-MS UV-trace 260 nm
[5] = 48 h, quenched with TFA, LC-MS UV-trace 260 nm
[6] = 169 h, quenched with TFA, LC-MS UV-trace 260 nm
[7] = 8 h, quenched with TFA, LC-MS UV-trace 260 nm
[8] = 24 h, quenched with TFA, LC-MS UV-trace 260 nm

ARH3, sequence (Q9NX46 whole entry): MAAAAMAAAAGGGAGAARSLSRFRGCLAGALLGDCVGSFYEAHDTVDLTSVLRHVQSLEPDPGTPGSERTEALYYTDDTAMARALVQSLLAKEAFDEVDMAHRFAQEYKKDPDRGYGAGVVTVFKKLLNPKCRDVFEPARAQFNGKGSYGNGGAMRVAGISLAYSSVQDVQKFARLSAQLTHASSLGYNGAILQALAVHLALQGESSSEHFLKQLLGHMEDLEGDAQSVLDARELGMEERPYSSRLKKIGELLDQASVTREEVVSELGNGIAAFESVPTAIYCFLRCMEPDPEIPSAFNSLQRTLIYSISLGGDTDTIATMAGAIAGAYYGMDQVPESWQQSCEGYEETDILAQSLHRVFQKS

Row | SMILES | ARH3-mediated hydrolysis of the N-glycosidic linkage (ARH3) | additional peaks of identical mass (isomerization) after NaOH treatment ([1]; 24 h) | Accumulated isomers (%) [1, 2] | Accumulated isomers (%) [1, 3] | Intact peptide (%) [1, 3] | Accumulated isomers (%) [1, 4] | Accumulated isomers (%) [1, 5] | Intact peptide (%) [1, 5] | Accumulated isomers (%) [1, 6] | Intact peptide (%) [1, 6] | original peptide present after NaOH treatment ([1]; after 12 h, time course, quenched with TFA, LC-MS UV-trace 260 nm) | conversion by ARH3 (ARH3; within the 1 h reaction, pH 8) | Intact peptide (%) [1, 2] | Intact peptide (%) [1, 4] | Accumulated isomers (%) [1, 7] | Intact peptide (%) [1, 7] | Accumulated isomers (%) [1, 8] | Intact peptide (%) [1, 8]
1 | CC(C)C[C@H](NC(=O)CNC(=O)[C@H](C)NC(=O)CNC(=O)[C@H](Cc1cn([C@@H]2O[C@H](COP(=O)(O)OP(=O)(O)OC[C@H]3O[C@@H](n4cnc5c(N)ncnc54)[C@H](O)[C@@H]3O)[C@@H](O)[C@H]2O)nn1)NC(=O)[C@H](Cc1ccccc1)NC(=O)[C@@H](N)[C@@H](C)O)C(=O)N[C@H](C(=O)N[C@H](C(=O)N1CCC[C@H]1C(=O)N[C@H](C(=O)N[C@@H](CC(=O)O)C(=O)N[C@@H](CCCCN)C(=O)O)C(C)C)C(C)C)C(C)C [compound 23] | unaffected | 5% | – | – | – | – | – | – | – | – | – | – | – | – | – | – | – | –
2 | CC(C)C[C@H](NC(=O)CNC(=O)[C@H](C)NC(=O)CNC(=O)[C@H](Cc1cnnn1[C@@H]1O[C@H](COP(=O)(O)OP(=O)(O)OC[C@H]2O[C@@H](n3cnc4c(N)ncnc43)[C@H](O)[C@@H]2O)[C@@H](O)[C@H]1O)NC(=O)[C@H](Cc1ccccc1)NC(=O)[C@@H](N)[C@@H](C)O)C(=O)N[C@H](C(=O)N[C@H](C(=O)N1CCC[C@H]1C(=O)N[C@H](C(=O)N[C@@H](CC(=O)O)C(=O)N[C@@H](CCCCN)C(=O)O)C(C)C)C(C)C)C(C)C [compound 24] (H-TF[X2]GAGLVVPVDK-OH) | unaffected | – | 0% | 39% | 61% | 48% | 71% | 29% | 71% | 29% | 38% | – | – | – | – | – | – | –
3 | CC(C)C[C@H](NC(=O)CNC(=O)[C@H](C)NC(=O)CNC(=O)[C@H](Cc1cn([C@H]2O[C@H](COP(=O)(O)OP(=O)(O)OC[C@H]3O[C@@H](n4cnc5c(N)ncnc54)[C@H](O)[C@@H]3O)[C@@H](O)[C@H]2O)nn1)NC(=O)[C@H](Cc1ccccc1)NC(=O)[C@@H](N)[C@@H](C)O)C(=O)N[C@H](C(=O)N[C@H](C(=O)N1CCC[C@H]1C(=O)N[C@H](C(=O)N[C@@H](CC(=O)O)C(=O)N[C@@H](CCCCN)C(=O)O)C(C)C)C(C)C)C(C)C [compound 28] | very weakly | 12% | – | – | – | – | – | – | – | – | – | – | – | – | – | – | – | –
4 | CC(C)C[C@H](NC(=O)CNC(=O)[C@H](C)NC(=O)CNC(=O)[C@H](Cc1cnnn1[C@H]1O[C@H](COP(=O)(O)OP(=O)(O)OC[C@H]2O[C@@H](n3cnc4c(N)ncnc43)[C@H](O)[C@@H]2O)[C@@H](O)[C@H]1O)NC(=O)[C@H](Cc1ccccc1)NC(=O)[C@@H](N)[C@@H](C)O)C(=O)N[C@H](C(=O)N[C@H](C(=O)N1CCC[C@H]1C(=O)N[C@H](C(=O)N[C@@H](CC(=O)O)C(=O)N[C@@H](CCCCN)C(=O)O)C(C)C)C(C)C)C(C)C [compound 29] (H-TF[X1]GAGLVVPVDK-OH) | capable of hydrolyzing | – | 0% | 26% | 74% | 40% | 62% | 38% | 62% | 38% | – | ~50% | 100% | 60% | 51% | 49% | 61% | 39%
